Results on one compound are retold here after patent US10106542B2, “Substituted 6,7-dihydropyrazolo[1,5-a]pyrazines as negative allosteric modulators of mGluR2 receptors” (Janssen Pharmaceutica NV, priority 2013, dated 2018).

Where two headings read alike, the source gives them in different places.

Series [1] relates to Male Long Evans rats. Put plainly: V-maze test (PCP-disrupted visual-spatial working memory). Type of series: in vivo, rat. Particulars: p.o. 4 h before test. From the text: The V-maze-test is a two-trial short term visual-spatial working memory task based on spontaneous exploration of a new and a familiar arm in a 2-arm maze (Embrechts et al. (2013) “Longitudinal characterization of the TauPS2APP mouse model of Alzheimer's disease in a two trial discrimination task of visuo-spatial recognition memory”, 45th European Brain and Behaviour Society Meeting 6-9 Sep. 2013, Munich, Abstract P202).
Male Long Evans rats (Janvier, France, body weight 280 to 295 g) were group housed in enriched individually ventilated cages and habituated to environmental conditions for 5 days. After acclimatization, animals were single housed for 4 days until testing. During this period animals were handled for 2 min per day and received sham dosing once a day for 3 days prior to the test. The V-maze consisted of two arms (L×W×H: 70×10×30 cm) at a 90° angle to each other to form a V-shaped maze connected by guillotine doors to a center zone. […] The animal's exploration of each arm was automatically quantified using Ethovision XT 7.0 (Noldus, The Netherlands). […] The time spent in the familiar and new arm respectively during the choice session was recorded for 5 min.
Co. No. 1 was evaluated in rats in a series of dose-response studies evaluating doses from 0.16 to 10 mg/kg. […]

Series [2] deals with Wiga rats. Put plainly: Reserpine interaction test in rats. Type of series: in vivo, rat. Particulars: Rattus norvegicus, Wiga rats. The protocol: 4) Reserpine Interaction Test in Rats
It was investigated to what extent the mydriatic action of test compounds was sufficient to counteract the miosis induced by the monoamines-depleting agent reserpine (10 mg/kg; SC) in Wiga rats.
The effects are illustrated in FIG. 3. […] The reference mGlu2 NAMs RO-4995819 (40 mg/kg, p.o.), RO-4491533 (40 mg/kg, p.o.; 10 mg/kg, s.c.) and [CAS 579473-69-1]

Series [3] in a line: Ro-4-1284 interaction test in rats. Type of series: in vivo, rat. Particulars: rat, in vivo, po; read-out: ED50 effect on body temperature immediately before the injection of Ro-4-1284. How it is done:
(§1) 5) Ro-4-1284 Interaction Test in Rats The relative ability of Co. No. 1 to increase palpebral opening was also studied in rats challenged with another monoamines depleting agent, viz. Ro-4-1284 (1.25 mg/kg, s.c.). Effects on body temperature immediately before the injection of Ro-4-1284 were also measured. The cumulative palpebral opening score (every 5 min over a 1-h period) was used for evaluation. The median cumulative palpebral opening in solvent-pretreated control animals (n=70) was 18; a scores >25 occurred in only 1.4% of these control animals and was adopted as all-or-none criterion for drug-induced reversal of the Ro-4-1284-induced palpebral ptose. Co.

For series [4], the system named is rats. Put plainly: Ro-4-1284 interaction test in rats. Type of series: in vivo, rat. Particulars: Rattus norvegicus; p.o.; Ro-4-1284 1.25 mg/kg s.c.; cumulative score over 1 h; read-out: ED50 increase of palpebral opening to scores >25 (reversal of Ro-4-1284-induced palpebral ptose). How it is done: as §1
The subject of series [5] is rat hippocampal brain slices. Nature of the series: Reversal of mGluR2-agonism (LY-354740-depressed fEPSP) in hippocampal brain slices. It counts as cell-based. From the text: 7) Reversal of mGluR2-Agonism in Hippocampal Brain Slices Introduction
Electrophysiology recordings of field excitatory postsynaptic potentials (fEPSPs) in acute hippocampal brain slices represent a model for testing synaptic transmission and plasticity. The effect of Co. No. 1 on synaptic transmission and plasticity in dentate gyms synapses was investigated using this model.
(§2) Recordings of fEPSPs were made from hippocampal brain slices using a multi-electrode array (MEA) biochip, and 3-dimensional-(3D) tip electrodes, according to a standard protocol. These recordings were used to monitor glutamate-mediated synaptic transmission (FIG. 4).

Series [6] deals with rat hippocampal brain slices. Nature of the series: Long-term potentiation in the dentate gyrus of hippocampal brain slices. Type of series: cell-based. Particulars: 10 μM. The protocol: as §2
Subsequently, the effects of Co. No. 1 on synaptic function using long-term potentiation (LTP) protocols in the dentate gyms (Goeldner et. al., Neuropharmacology 2013, 64, 337-346) were evaluated.
Small magnitude LTP (110%) was induced using isolated glutamatergic-mediated fEPSP: trains of theta-burst stimulation that are known to induce LTP at these particular synapses were applied (Dinklo et al., J. Pharmacol. Exp. Ther. 2011, 336(2), 560-574). In the presence of 10 μM Co. No. 1, the magnitude of LTP was enhanced by 150% compared to baseline (p=0.005). […] At the end of the experiments, addition of 1 mM kynurenic acid to block glutamatergic neurotransmission, confirmed that the post-synaptic response is mediated by glutamate neurotransmission.

For the compound `Cc1cc(-c2cnn3c2C(=O)N(c2ccc(C(F)(F)F)cc2)C[C@@H]3C)ccn1` [compound 1, (7S)-7-Methyl-3-(2-methylpyridin-4-yl)-5-[4-(trifluoromethyl)phenyl]-6,7-dihydropyrazolo[1,5-a]pyrazin-4(5H)-one], the “reversal effect against PCP observed up to the highest dose tested” value in series [1] (PCP 0.75 mg/kg s.c.) was not above 10 mg/kg. The “doses at which PCP-challenged rats showed again a clear preference for the new arm” value in series [1] (PCP 0.75 mg/kg s.c. 30 min prior, doses 0.16 to 10 mg/kg evaluated) is recorded as not below 0.32 mg/kg. The 50% effective dose (ED50) (as a rule, the dose that gives a 50% effect, or the effect in half of the subjects) in series [2] (p.o., -1 h, reserpine 10 mg/kg SC, read-out: ED50 reversal of reserpine-induced miosis) was found to be 9.4 mg/kg; in series [2] (p.o., -1 h, reserpine 10 mg/kg SC, read-out: ED50 reversal of reserpine-induced ptosis), 0.78 mg/kg; in series [2] (p.o., -1 h, reserpine 10 mg/kg SC, read-out: ED50 reversal of reserpine-induced sedation), 7.1 mg/kg; in series [2] (p.o., -4 h, reserpine 10 mg/kg SC, read-out: ED50 reversal of reserpine-induced miosis) it was 9.4 mg/kg; in series [2] (p.o., -4 h, reserpine 10 mg/kg SC, read-out: ED50 reversal of reserpine-induced ptosis) it was 0.78 mg/kg; in series [2] (p.o., -4 h, reserpine 10 mg/kg SC, read-out: ED50 reversal of reserpine-induced sedation), 14 mg/kg. The ED50 was 1.55 mg/kg in series [2] (po, -1 h, read-out: ED50 mydriasis before the reserpine challenge); 0.89 mg/kg in series [2] (po, -4 h, read-out: ED50 mydriasis before the reserpine challenge); 0.67 mg/kg in series [2] (po, Time 60, reserpine 10 mg/kg SC, read-out: ED50, reversal of reserpine-induced ptosis); 0.89 mg/kg in series [2] (po, Time 240, reserpine 10 mg/kg SC, read-out: ED50, reversal of reserpine-induced ptosis); 1.01 mg/kg in series [2] (sc, Time 60, reserpine 10 mg/kg SC, read-out: ED50, reversal of reserpine-induced ptosis); 1.78 mg/kg in series [2] (sc, read-out: ED50 mydriasis before the reserpine challenge). Further, the ED50 is 4.1 mg/kg in series [2] (sc, reserpine 10 mg/kg SC, read-out: ED50 reversal of reserpine-induced miosis); 1.03 mg/kg in series [2] (sc, reserpine 10 mg/kg SC, read-out: ED50 reversal of reserpine-induced ptosis); 9.4 mg/kg in series [2] (sc, reserpine 10 mg/kg SC, read-out: ED50 reversal of reserpine-induced sedation); more than 10 mg/kg in series [3]; 0.51 mg/kg in series [4]. Also, the “paired-pulse ratio (PPR)” value in series [5] (10 μM Co. No. 1 after LY-354740 1 μM) is given as “decrease of the PPR”. In addition, the “recovery of the LY-354740-induced depression of fEPSP” value in series [5] (10 μM, fifteen min after application, LY-354740 1 μM, n=17 slices from 4 rats) amounted to 80%. Also, the “post-theta potentiation (PTP)” value in series [6] (vehicle 120%, p=0.01, 22 slices from 4 SD rats) is recorded as 160%. Besides, the “magnitude of LTP compared to baseline” value in series [6] (weak theta-burst stimulation, p=0.005, control LTP 110%) worked out at 150%.
